Reference: PMC11189555, “Aryl amino acetamides prevent Plasmodium falciparum ring development via targeting the lipid-transfer protein PfSTART1” (Nature Communications, 2024)
Where “and” joins values, the source holds several entries; their conditions need not be identical. Equal entries are not always repeated.

Test system: 3D7 P. falciparum parasites
Experiment: Growth inhibition assay (72 h, LDH activity)
Format: cell-based, Plasmodium falciparum
Protocol: Parasite growth assays with inhibitory compounds were performed as per[11] and are fully described in the Supplementary Information. […]
Growth inhibition assays. Synchronised ring-stage parasites (0.3-0.6% parasitemia, 2% haematocrit) were grown for 72 h in a serial-dilution of the compound under […]
and compound 4. Note that M-833 was first purchased from MolPort (MolPort -002-267-916) then made in-house at WEHI: the differences observed in EC50s across experiments are attributed to the different batches of M -833. For some experiments, 0, 0.25 or 2.5 mM of glucosamine (GlcN) was also added. Experiments were set up in technical duplicates or triplicates. Following a freeze -thaw cycle, lactate dehydrogenase (LDH) activity was assessed as an indicator of parasite growt h 5. 30 μL of parasite culture was incubated for 30 min in the dark with 75 μL Malstat mixture (0.1 M Tris pH 9.0, 20 g/L lactic acid, pH 7.5, 0.2% Triton-X100, 0.5 g/L acetylpyridine adenine dinucleotide (APAD, Sigma), 200 μg/mL nitroblue tetrazolium (NBT; Sigma), 1 μg/mL phenozine ethosulfate (PES; Sigma)). Absorbance was then measured at 650 nm, transformed using the formula below, plotted against the logarithm of the concentrations, and a non-linear regression (log(inhibitor) vs. response, variable slope) was calculated using GraphPad Prism to assess the half-inhibitory […]
Growth inhibition % = (1 − average(sample)− average(uRBC)) ∗ 100 […]
The DMSO samples were also used to assess growth of parasite in the presence of 0.25 and 2.5 mM GlcN (normalised by DMSO in 0 mM GlcN). […]

SMILES: Cc1cc(Cl)c(S(=O)(=O)N2CCCC2)cc1OCC(=O)NC1CCCCC1 [M-833]
- sample/DMSO (growth inhibition vs DMSO, LDH) (3D7, 0 mM GlcN, M-833 0.000508053 uM, biological replicates 1-3): 0.3955
- sample/DMSO (growth inhibition vs DMSO, LDH) (3D7, 0 mM GlcN, M-833 0.00152416 uM, biological replicates 1-4): 3.899 and 0.6135 and 1.269 and -5.021
- sample/DMSO (growth inhibition vs DMSO, LDH) (3D7, 0 mM GlcN, M-833 0.00457247 uM, biological replicates 1-4): 7.9783 and -0.1897 and 1.9685 and -5.962
- sample/DMSO (growth inhibition vs DMSO, LDH) (3D7, 0 mM GlcN, M-833 0.0137174 uM, biological replicates 1-4): 6.577 and 0.4933 and 7.305 and 4.539
- sample/DMSO (growth inhibition vs DMSO, LDH) (3D7, 0 mM GlcN, M-833 0.0411523 uM, biological replicates 1-4): 17.0189 and 4.351 and 25.6124 and 2.634
- sample/DMSO (growth inhibition vs DMSO, LDH) (3D7, 0 mM GlcN, M-833 0.123457 uM, biological replicates 1-4): 41.0894 and 22.2426 and 56.6492 and 25.1037
- sample/DMSO (growth inhibition vs DMSO, LDH) (3D7, 0 mM GlcN, M-833 0.37037 uM, biological replicates 1-4): 84.744 and 69.3587 and 86.7673 and 75.1317
- sample/DMSO (growth inhibition vs DMSO, LDH) (3D7, 0 mM GlcN, M-833 1.11111 uM, biological replicates 1-4): 95.6718 and 89.236 and 91.7104 and 88.7258
- sample/DMSO (growth inhibition vs DMSO, LDH) (3D7, 0 mM GlcN, M-833 3.33333 uM, biological replicates 1-4): 96.655 and 91.1143 and 93.0446 and 90.6646
- Growth inhibition assay, NORMALISED (3D7, 0 mM GlcN, conc 13.7174 nM): 13.0746
- Growth inhibition assay, NORMALISED (3D7, 0 mM GlcN, conc 41.1523 nM): 31.4939
- Growth inhibition assay, NORMALISED (3D7, 0 mM GlcN, conc 123.457 nM): 59.8439
- Growth inhibition assay, NORMALISED (3D7, 0 mM GlcN, conc 370.37 nM): 84.7029
- Growth inhibition assay, NORMALISED (3D7, 0 mM GlcN, conc 1111.11 nM): 90.8825
- Growth inhibition assay, NORMALISED (3D7, 0 mM GlcN, conc 3333.33 nM): 92.758
- Growth inhibition assay, NORMALISED (3D7, 0 mM GlcN, conc 10000 nM): 93.376
- sample/DMSO (growth inhibition vs DMSO, LDH) (3D7, 0.25 mM GlcN, M-833 0.000508053 uM, biological replicates 1-3): 3.472 and 0.2055
- sample/DMSO (growth inhibition vs DMSO, LDH) (3D7, 0.25 mM GlcN, M-833 0.00152416 uM, biological replicates 1-4): 7.594 and 1.781 and -0.4107 and -3.683
- sample/DMSO (growth inhibition vs DMSO, LDH) (3D7, 0.25 mM GlcN, M-833 0.00457247 uM, biological replicates 1-4): 11.6683 and 13.0152 and -3.5254 and -4.48
- sample/DMSO (growth inhibition vs DMSO, LDH) (3D7, 0.25 mM GlcN, M-833 0.0137174 uM, biological replicates 1-4): 18.8525 and 10.2866 and 0.5749 and 7.343
- sample/DMSO (growth inhibition vs DMSO, LDH) (3D7, 0.25 mM GlcN, M-833 0.0411523 uM, biological replicates 1-4): 37.8978 and 20.6188 and 3.974 and 3.155
- sample/DMSO (growth inhibition vs DMSO, LDH) (3D7, 0.25 mM GlcN, M-833 0.123457 uM, biological replicates 1-4): 60.1495 and 44.3886 and 19.2191 and 24.7586
- sample/DMSO (growth inhibition vs DMSO, LDH) (3D7, 0.25 mM GlcN, M-833 0.37037 uM, biological replicates 1-4): 90.2604 and 84.0393 and 70.7607 and 72.7038
- sample/DMSO (growth inhibition vs DMSO, LDH) (3D7, 0.25 mM GlcN, M-833 1.11111 uM, biological replicates 1-4): 94.6962 and 95.3762 and 89.746 and 88.7379
- sample/DMSO (growth inhibition vs DMSO, LDH) (3D7, 0.25 mM GlcN, M-833 3.33333 uM, biological replicates 1-4): 94.1176 and 95.9927 and 91.6288 and 90.366
- Growth inhibition assay, NORMALISED (3D7, 0.25 mM GlcN, conc 123.457 nM): 65.6199 and 63.1151
- Growth inhibition assay, NORMALISED (3D7, 0.25 mM GlcN, conc 370.37 nM): 87.6963 and 91.9897
- Growth inhibition assay, NORMALISED (3D7, 0.25 mM GlcN, conc 1111.11 nM): 93.5707 and 96.2430
- Growth inhibition assay, NORMALISED (3D7, 0.25 mM GlcN, conc 3333.33 nM): 94.9648 and 97.4583
- Growth inhibition assay, NORMALISED (3D7, 0.25 mM GlcN, conc 10000 nM): 98.3055 and 95.804
- NORMALISED (growth inhibition, LDH absorbance vs DMSO and uRBC) (3D7, 2.5 mM GlcN, M833 dilution point 1 of 10 (starting concentration 10 uM)): 96.8148 and 98.7231 and 95.2456
- NORMALISED (growth inhibition, LDH absorbance vs DMSO and uRBC) (3D7, 2.5 mM GlcN, M833 dilution point 2 of 10 from 10 uM start): 95.7251 and 93.6187 and 97.3100
- NORMALISED (growth inhibition, LDH absorbance vs DMSO and uRBC) (3D7, 2.5 mM GlcN, M833 dilution point 3 of 10 from 10 uM start): 96.9824 and 90.9335 and 96.6034
- NORMALISED (growth inhibition, LDH absorbance vs DMSO and uRBC) (3D7, 2.5 mM GlcN, M833 dilution point 4 of 10 from 10 uM start): 93.881 and 84.8839 and 92.4066
- NORMALISED (growth inhibition, LDH absorbance vs DMSO and uRBC) (3D7, 2.5 mM GlcN, M833 dilution point 5 of 10 from 10 uM start): 83.487 and 63.7656 and 70.6904
- sample/DMSO (growth inhibition vs DMSO, LDH) (3D7, 2.5 mM GlcN, M-833 0.000508053 uM, biological replicates 1-3): -0.6607
- sample/DMSO (growth inhibition vs DMSO, LDH) (3D7, 2.5 mM GlcN, M-833 0.00152416 uM, biological replicates 1-4): -1.11 and -0.7648 and -1.644 and -5.451
- sample/DMSO (growth inhibition vs DMSO, LDH) (3D7, 2.5 mM GlcN, M-833 0.00457247 uM, biological replicates 1-4): 2.378 and 5.032 and -5.671 and -4.085
- sample/DMSO (growth inhibition vs DMSO, LDH) (3D7, 2.5 mM GlcN, M-833 0.0137174 uM, biological replicates 1-4): 17.2304 and 4.206 and -1.672 and 24.2341
- sample/DMSO (growth inhibition vs DMSO, LDH) (3D7, 2.5 mM GlcN, M-833 0.0411523 uM, biological replicates 1-4): 38.9006 and 17.4059 and 1.86 and 27.5421
- sample/DMSO (growth inhibition vs DMSO, LDH) (3D7, 2.5 mM GlcN, M-833 0.123457 uM, biological replicates 1-4): 56.4218 and 44.1266 and 25.1289 and 54.0055
